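Five compound concentrations were applied to cells in 96-well plates for 48 hours; endpoints were derived by simple linear interpolation of the resulting dose-response curve. GI50: concentration for 50% inhibition of growth.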 Active and inactive are the calls of the source. No stated cut-off is given here; in the data, active = GI50 up to about 1.1 µM and inactive = higher.
Columns and labels:
Assay in all cases: growth of human tumour cells (NCI), 48 h
786-0 = tested on: 786-0
A498 = tested on: A498
A549 = tested on: A549
ACHN = tested on: ACHN
BT-549 = tested on: BT-549
CAKI-1 = tested on: CAKI-1
CCRF-CEM = tested on: CCRF-CEM
COLO 205 = tested on: COLO 205
DU-145 = tested on: DU-145
EKVX = tested on: EKVX
HCC 2998 = tested on: HCC 2998
HCT-116 = tested on: HCT-116
HCT-15 = tested on: HCT-15
HL-60 = tested on: HL-60
HOP-62 = tested on: HOP-62
HOP-92 = tested on: HOP-92
HT-29 = tested on: HT-29
Hs-578T = tested on: Hs-578T
IGROV-1 = tested on: IGROV-1
K562 = tested on: K562
KM12 = tested on: KM12
LOX IMVI = tested on: LOX IMVI
M14 = tested on: M14
MCF7 = tested on: MCF7
MDA-MB-231 = tested on: MDA-MB-231
MDA-MB-435 = tested on: MDA-MB-435
MDA-N = tested on: MDA-N
Malme-3M = tested on: Malme-3M
NCI-H226 = tested on: NCI-H226
NCI-H23 = tested on: NCI-H23
NCI-H460 = tested on: NCI-H460
NCI-H522 = tested on: NCI-H522
NCI/ADR-RES = tested on: NCI/ADR-RES
OVCAR-3 = tested on: OVCAR-3
OVCAR-4 = tested on: OVCAR-4
OVCAR-5 = tested on: OVCAR-5
OVCAR-8 = tested on: OVCAR-8
PC-3 = tested on: PC-3
RPMI-8226 = tested on: RPMI-8226
RXF 393 = tested on: RXF 393
SF-268 = tested on: SF-268
SF-295 = tested on: SF-295
SK-MEL-28 = tested on: SK-MEL-28
SK-MEL-2 = tested on: SK-MEL-2
SK-MEL-5 = tested on: SK-MEL-5
SK-OV-3 = tested on: SK-OV-3
SN12C = tested on: SN12C
SNB-19 = tested on: SNB-19
SNB-75 = tested on: SNB-75
SR = tested on: SR
SW-620 = tested on: SW-620
T47D = tested on: T47D
TK-10 = tested on: TK-10
U-251 = tested on: U-251
UACC-257 = tested on: UACC-257
UACC-62 = tested on: UACC-62
UO-31 = tested on: UO-31
MOLT-4 = tested on: MOLT-4
SF-539 = tested on: SF-539

CCCn1cnc2c(SCC(=O)O)nc(N)nc21
GI50 (786-0): > 100 µM (inactive)
GI50 (A498): > 100 µM (inactive)
GI50 (A549): > 100 µM (inactive)
GI50 (ACHN): > 100 µM (inactive)
GI50 (BT-549): > 100 µM (inactive)
GI50 (CAKI-1): > 100 µM (inactive)
GI50 (CCRF-CEM): > 100 µM (inactive)
GI50 (COLO 205): > 100 µM (inactive)
GI50 (DU-145): > 100 µM (inactive)
GI50 (EKVX): > 100 µM (inactive)
GI50 (HCC 2998): > 100 µM (inactive)
GI50 (HCT-116): > 100 µM (inactive)
GI50 (HCT-15): > 100 µM
GI50 (HL-60): > 100 µM (inactive)
GI50 (HOP-62): > 100 µM (inactive)
GI50 (HOP-92): > 100 µM (inactive)
GI50 (HT-29): > 100 µM (inactive)
GI50 (Hs-578T): > 100 µM (inactive)
GI50 (IGROV-1): > 100 µM (inactive)
GI50 (K562): > 100 µM (inactive)
GI50 (KM12): > 100 µM (inactive)
GI50 (LOX IMVI): > 100 µM (inactive)
GI50 (M14): > 100 µM (inactive)
GI50 (MCF7): > 100 µM (inactive)
GI50 (MDA-MB-231): > 100 µM (inactive)
GI50 (MDA-MB-435): > 100 µM (inactive)
GI50 (MDA-N): > 100 µM (inactive)
GI50 (Malme-3M): > 100 µM (inactive)
GI50 (NCI-H226): > 100 µM (inactive)
GI50 (NCI-H23): > 100 µM (inactive)
GI50 (NCI-H460): > 100 µM (inactive)
GI50 (NCI-H522): > 100 µM (inactive)
GI50 (NCI/ADR-RES): > 100 µM (inactive)
GI50 (OVCAR-3): > 100 µM (inactive)
GI50 (OVCAR-4): > 100 µM (inactive)
GI50 (OVCAR-5): > 100 µM (inactive)
GI50 (OVCAR-8): > 100 µM (inactive)
GI50 (PC-3): > 100 µM (inactive)
GI50 (RPMI-8226): > 100 µM (inactive)
GI50 (RXF 393): > 100 µM (inactive)
GI50 (SF-268): > 100 µM (inactive)
GI50 (SF-295): > 100 µM (inactive)
GI50 (SK-MEL-28): > 100 µM (inactive)
GI50 (SK-MEL-2): > 100 µM (inactive)
GI50 (SK-MEL-5): > 100 µM (inactive)
GI50 (SK-OV-3): > 100 µM (inactive)
GI50 (SN12C): > 100 µM (inactive)
GI50 (SNB-19): > 100 µM (inactive)
GI50 (SNB-75): > 100 µM (inactive)
GI50 (SR): > 100 µM (inactive)
GI50 (SW-620): > 100 µM (inactive)
GI50 (T47D): > 100 µM (inactive)
GI50 (TK-10): > 100 µM (inactive)
GI50 (U-251): > 100 µM (inactive)
GI50 (UACC-257): > 100 µM (inactive)
GI50 (UACC-62): > 100 µM (inactive)
GI50 (UO-31): > 100 µM (inactive)

CC(C)=CCC/C(C)=C/CC/C(C)=C/CC(CO)N(C)CC/C=C(\C)CCC=C(C)C (stereo not given)
GI50 (786-0): 1.91 µM (inactive)
GI50 (A498): 14.9 µM (inactive)
GI50 (A549): 4.93 µM (inactive)
GI50 (ACHN): 11.6 µM (inactive)
GI50 (BT-549): 14.1 µM (inactive)
GI50 (CAKI-1): 6.64 µM (inactive)
GI50 (CCRF-CEM): 3.03 µM (inactive)
GI50 (COLO 205): 2.42 µM (inactive)
GI50 (DU-145): 11.5 µM (inactive)
GI50 (EKVX): 10.4 µM (inactive)
GI50 (HCC 2998): 3.04 µM (inactive)
GI50 (HCT-116): 2.15 µM (inactive)
GI50 (HCT-15): 3.78 µM
GI50 (HOP-62): 4.32 µM (inactive)
GI50 (HOP-92): 2.7 µM (inactive)
GI50 (HT-29): 3.5 µM (inactive)
GI50 (Hs-578T): 5.31 µM (inactive)
GI50 (IGROV-1): 3.1 µM (inactive)
GI50 (K562): 1.6 µM (inactive)
GI50 (KM12): 3.94 µM (inactive)
GI50 (LOX IMVI): 2.92 µM (inactive)
GI50 (M14): 1.79 µM (inactive)
GI50 (MCF7): 2.11 µM (inactive)
GI50 (MDA-MB-231): 9.86 µM (inactive)
GI50 (MDA-MB-435): 3.93 µM (inactive)
GI50 (MDA-N): 3.43 µM (inactive)
GI50 (MOLT-4): 2.39 µM (inactive)
GI50 (Malme-3M): 2.99 µM (inactive)
GI50 (NCI-H226): 13.7 µM (inactive)
GI50 (NCI-H23): 7.96 µM (inactive)
GI50 (NCI-H460): 3.48 µM (inactive)
GI50 (NCI-H522): 2.09 µM (inactive)
GI50 (NCI/ADR-RES): 4.62 µM (inactive)
GI50 (OVCAR-3): 14.2 µM (inactive)
GI50 (OVCAR-4): 8.97 µM (inactive)
GI50 (OVCAR-5): 7.13 µM (inactive)
GI50 (OVCAR-8): 7 µM (inactive)
GI50 (PC-3): 7.96 µM (inactive)
GI50 (RPMI-8226): 3.09 µM (inactive)
GI50 (RXF 393): 4.82 µM (inactive)
GI50 (SF-268): 13.3 µM (inactive)
GI50 (SF-295): 7.1 µM (inactive)
GI50 (SF-539): 3.06 µM (inactive)
GI50 (SK-MEL-28): 5.87 µM (inactive)
GI50 (SK-MEL-2): 14.3 µM (inactive)
GI50 (SK-MEL-5): 8.39 µM (inactive)
GI50 (SK-OV-3): 14.9 µM (inactive)
GI50 (SN12C): 4.54 µM (inactive)
GI50 (SNB-19): 8.91 µM (inactive)
GI50 (SNB-75): 12 µM (inactive)
GI50 (SR): 2.17 µM (inactive)
GI50 (SW-620): 3.62 µM (inactive)
GI50 (T47D): 3.64 µM (inactive)
GI50 (TK-10): 9.53 µM (inactive)
GI50 (U-251): 3.56 µM (inactive)
GI50 (UACC-257): 5.2 µM (inactive)
GI50 (UACC-62): 16.1 µM (inactive)
GI50 (UO-31): 4.65 µM (inactive)
